According to patent US9980979B2, “Compounds and methods for enhancing erythropoiesis” (NATIONAL YANG-MING UNIVERSITY, priority 2008, dated 2018):

How the values were obtained:
[1] = system: erythroid progenitor cells (bone marrow cells); assay: burst-forming-units-erythroid (BFU-E) assay on bone marrow cells in culture; type: cell-based, C57BL/6JNarl mice; details: 0.5~12.5 μg/ml, 9 days, with 2 U/ml Epo and 10 ng/ml IL-3; versus 0 concentration; FIG. 2
Method: To investigate the effect of “Compound A” on erythroid progenitor cells, burst-forming-units-erythroid (BFU-E) assay was conducted according to the procedures described in Corazza et al. (2004) and Jin et al. (2003) with modifications. Briefly, 6-week-old C57BL/6JNarl mice were purchased from the National Laboratory Animal Center (NLAC, Taiwan). Bone marrow cells were isolated from the mice, and the cell suspension was adjusted to about 8.3×10^4 cells/ml in α-MEM containing 15% (v/v) FBS (Gibco), 1% (v/v) BSA (Sigma-Aldrich), 0.8% (w/v) methylcellulose (Sigma-Aldrich), 10 μM 2-mercaptoethanol (Sigma-Aldrich), 2 U/ml Epo (Recormon Epoetin, Roche), and 10 ng/ml IL-3 (Sigma-Aldrich). Cells were plated at approximately 7.5×10^4 cells/well in 24-well plates (Falcon). They were incubated with different concentrations of Compound A (0, 0.1, 0.5, 2.5 and 12.5 μg/ml), respectively, for 9 days in a humidified 37° C. incubator containing 5% CO2-95% air. The colonies were stained with 3-(4,5-dimethylthiazol-2-yl)-2,5-diphenyl-tetrazolium bromide (50 m/50 μl/well) (MTT; Sigma-Aldrich). Plates were photographed while colonies of more than 50 cells were counted. Results were expressed as mean±S.E. (n=3). Statistical significance was evaluated by Student's t test (*P<0.05 and **P<0.01 versus control group (i.e., 0 concentration)).

[2] = system: hepatocyte growth factor (HGF); assay: liver expression of HGF in cisplatin-induced acute renal failure animal model (PCR); type: in vivo, mouse; details: 10~90 mg/Kg/day, day 28; FIG. 10
Method: (§1) The effects of Compound A treatment on cisplatin-induced acute renal failure animal model were investigated. C57BL/6JNarl mice (8-week-old) were purchased from the National Laboratory Animal Center (NLAC, Taiwan). Cisplatin (Sigma-Aldrich) was dissolved in normal saline (0.9% (w/v) sodium chloride, Sigma-Aldrich) at a concentration of 1 mg/ml, and injected into mice intraperitoneally (i.p.) according to the following schedule: day 1, 7 mg/kg; day 5, 6 mg/kg; and day 9, 6 mg/kg. For cisplatin-untreated normal mice group, normal saline injections of corresponding volumes were given i.p. in parallel. At day 13, serum samples were collected and blood urea nitrogen (BUN) contents were assayed. […]
(§2) At the end of the experiments described in EXAMPLE 6 (i.e., day 28), mice were sacrificed, kidney and liver tissues were removed, and bone marrow cells were isolated. […] The reverse-transcribed cDNA samples were analyzed by PCR using ABI GeneAmp™ system 2700 (Applied Biosystems) and the SYBR Green Master Mix kit (Applied Biosystems) using primers targeting toward mouse glyceraldehyde 3-phosphate dehydrogenase (GAPDH) (SEQ ID NOs: 5 and 6), erythropoietin (Epo) (SEQ ID NOs: 3 and 4) and hepatocyte growth factor (HGF) (SEQ ID NOs: 7 and 8) (Table 1). Results were expressed as relative index±S.E. (n=5˜6). […]

[3] = system: erythroid progenitor cells (bone marrow cells); assay: BFU-E assay on bone marrow cells isolated from treated mice of the cisplatin-induced acute renal failure model; type: in vivo, C57BL/6JNarl mice; details: 10~90 mg/kg/day; cells isolated day 28, cultured 12 days; versus control group; FIG. 11
Method: as §1, §2

[4] = comparison with 3,4′,5-trihydroxy-trans-stilbene (data not shown)

For `OC[C@H]1O[C@@H](Oc2c(O)cc(O)cc2/C=C/c2ccc(O)cc2)[C@H](O)[C@@H](O)[C@@H]1O` [Compound A, 2,3,5,4′-tetrahydroxystilbene 2-O-β-D-glucopyranoside], the “number of BFU-E colonies of bone marrow cells” value [1] was “significantly increased the number of BFU-E colonies”, the “expression of HGF in liver tissue (relative index)” value [2] was “enhanced the expression of HGF in liver tissue” and the “number of BFU-E colonies of bone marrow cells (relative index)” value [3] was “significantly increased the number of BFU-E colonies”. For the same compound, the “enhancing renal functions and improving anemia, compared with 3,4′,5-trihydroxy-trans-stilbene” value ([4]; data not shown) was “superior to 3,4′,5-trihydroxy-trans-stilbene” and the “enhancing erythropoiesis and kidney functions, compared with 3,4′,5-trihydroxy-trans-stilbene” value ([4]; no data shown) was “superior to 3,4′,5-trihydroxy-trans-stilbene”.
